Data on three compounds can be found in patent US20040235098A1, “Sulfotransferase sequence variants” (Mayo Foundation for Medical Education and Research, a …, priority 1998, published 2004).

Experiment [1] deals with T1, SULT1A1*1 (Homo sapiens, UniProt P50225).
T1 construct: made in house; host or cells: COS-1 cells, pCR3.1 vector, unpurified cytosol
Kind of experiment: DCNP inhibition of recombinant SULT1A1*1 (COS-1 cell cytosol). The format is biochemical. Particulars: 4 μM 4-nitrophenol, mean±SEM of nine determinations. The procedure: (§1) Res. Commun., 198:1119-1127 (1994).
(§2) Finally, sensitivity of the recombinant proteins to inhibition by DCNP was determined. Sixteen different concentrations of DCNP, ranging from 0.01 to 1000 μM, were tested with each recombinant allozyme.

Experiment [2] addresses T2, SULT1A1*3 (Homo sapiens, UniProt P50225).
T2 construct: made in house; host or cells: COS-1 cells, pCR3.1 vector, unpurified cytosol
Nature of the experiment: DCNP inhibition of recombinant SULT1A1*3 (COS-1 cell cytosol). Type of experiment: biochemical. The conditions noted are these: 4 μM 4-nitrophenol, mean±SEM of nine determinations. The procedure: as §1, §2

For experiment [3], the target named is T3, SULT1A2*1 (Homo sapiens, UniProt P50226).
T3 construct: made in house; host or cells: COS-1 cells, pCR3.1 vector, unpurified cytosol
Nature of the experiment: DCNP inhibition of recombinant SULT1A2*1 (COS-1 cell cytosol). The conditions noted are these: 100 μM 4-nitrophenol, mean±SEM of nine determinations. The format is biochemical. The procedure:
as §1, §2

In experiment [4] the target is T4, SULT1A2*2 (Homo sapiens, UniProt P50226, I7T/N235T).
T4 construct: made in house; host or cells: COS-1 cells, pCR3.1 vector, unpurified cytosol
T4 sequence (P50226 whole entry I7T/N235T): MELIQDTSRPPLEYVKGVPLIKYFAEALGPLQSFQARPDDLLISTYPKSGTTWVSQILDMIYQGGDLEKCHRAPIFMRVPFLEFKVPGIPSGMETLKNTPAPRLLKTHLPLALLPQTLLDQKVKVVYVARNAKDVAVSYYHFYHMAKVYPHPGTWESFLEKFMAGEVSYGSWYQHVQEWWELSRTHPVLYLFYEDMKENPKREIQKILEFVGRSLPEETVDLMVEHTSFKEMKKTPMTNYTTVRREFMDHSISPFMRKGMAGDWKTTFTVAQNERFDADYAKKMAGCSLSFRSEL
Nature of the experiment: DCNP inhibition of recombinant SULT1A2*2 (COS-1 cell cytosol). Type of experiment: biochemical. Particulars: 3000 μM 4-nitrophenol, mean±SEM of nine determinations. The protocol:
as §1, §2

Experiment [5] concerns the target T5, SULT1A2*3 (Homo sapiens, UniProt P50226, P19L).
T5 construct: made in house; host or cells: COS-1 cells, pCR3.1 vector, unpurified cytosol
Kind of experiment: DCNP inhibition of recombinant SULT1A2*3 (COS-1 cell cytosol). The format is biochemical. Particulars: 50 μM 4-nitrophenol, mean±SEM of nine determinations. The procedure: as §1, §2

The target of experiment [6] is T6, SULT1A3 (Homo sapiens, UniProt P0DMM9).
T6 construct: made in house; host or cells: COS-1 cells, pCR3.1 vector, unpurified cytosol
T6 sequence (P0DMM9 whole entry): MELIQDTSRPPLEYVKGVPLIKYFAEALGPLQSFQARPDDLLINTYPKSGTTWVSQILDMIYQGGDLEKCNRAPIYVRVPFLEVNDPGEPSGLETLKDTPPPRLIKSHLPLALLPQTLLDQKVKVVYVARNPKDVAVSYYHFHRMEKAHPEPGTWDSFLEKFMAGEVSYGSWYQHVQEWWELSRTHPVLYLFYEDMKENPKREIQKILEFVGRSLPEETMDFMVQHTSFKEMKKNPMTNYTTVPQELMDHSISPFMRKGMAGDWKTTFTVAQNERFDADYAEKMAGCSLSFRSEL
Nature of the experiment: DCNP inhibition of recombinant SULT1A3 (COS-1 cell cytosol). Type of experiment: biochemical. Particulars: 3000 μM 4-nitrophenol, mean±SEM of nine determinations. The protocol: as §1, §2

The next experiment relates to TS PST. Particulars: thermostable phenol-preferring form; cited from earlier work.
The next experiment deals with TL PST (Homo sapiens, UniProt P0DMM9). Particulars: thermolabile monoamine-preferring form; cited from earlier work.
TL PST, sequence (P0DMM9 whole entry): as above
The target of experiment [7] is T4, SULT1A2*2. Kind of experiment: Substrate kinetics of recombinant SULT1A2*2. Type of experiment: biochemical. Particulars: mean±SEM of nine. The protocol:
as §1
(§3) Expression constructs for each of the common (frequencies≧1%) allozymes for SULT1A1 and SULT1A2 were used to transfect COS-1 cells. Selected biochemical and physical properties of the expressed enzymes were then determined. Those properties included apparent Km values for the two cosubstrates for the enzyme reaction (4-nitrophenol and PAPS); thermal stability; and sensitivity to inhibition by DCNP. The substrate kinetic experiments were performed in two steps. Initially a wide range of concentrations of 4-nitrophenol that varied over at least three orders of magnitude was tested, followed by detailed study of concentrations close to the apparent Km value for that allozyme. […] Data from these experiments were then used to construct double inverse plots that were used to calculate apparent Km values (Table 5).

For experiment [8], the target named is T6, SULT1A3. Nature of the experiment: Substrate kinetics of recombinant SULT1A3. The format is biochemical. The conditions noted are these: 3.9 to 3000 μM 4-nitrophenol, mean±SEM of nine.
Another experiment has as its system SULT1A2. Particulars: 100 μM 4-nitrophenol; cytosol from six pooled liver samples; three attempts.
In experiment [9] the target is T1, SULT1A1*1. Nature of the experiment: Substrate kinetics of recombinant SULT1A1*1. The format is biochemical. The conditions noted are these: 4 μM 4-nitrophenol, mean±SEM of nine, read-out: Apparent Km PAPS. The procedure: as §1, §3
The target in a further experiment is SULT1A1*2 (Homo sapiens, UniProt P50225, R213H/V223M). Nature of the experiment: Substrate kinetics of recombinant SULT1A1*2. The format is biochemical. Particulars: 4 μM 4-nitrophenol, mean±SEM of nine, read-out: Apparent Km PAPS. The procedure:
as §1, §3

Experiment [10] concerns the target T2, SULT1A1*3. Kind of experiment: Substrate kinetics of recombinant SULT1A1*3. Type of experiment: biochemical. Particulars: 4 μM 4-nitrophenol, mean±SEM of nine, read-out: Apparent Km PAPS. The protocol:
as §1, §3

The target of experiment [11] is T3, SULT1A2*1. Kind of experiment: Substrate kinetics of recombinant SULT1A2*1. The conditions noted are these: 100 μM 4-nitrophenol, mean±SEM of nine. Type of experiment: biochemical. The procedure:
as §1, §3

Experiment [12] concerns the target T5, SULT1A2*3. Kind of experiment: Substrate kinetics of recombinant SULT1A2*3. The format is biochemical. Particulars: 50 μM 4-nitrophenol, mean±SEM of nine, read-out: Apparent Km PAPS. The protocol: as §1, §3

By IC50 is commonly meant the concentration that inhibits the measured activity by half. One may read the Km as the concentration of substrate that gives half-maximal velocity.

T5 sequence (P50226 whole entry P19L): as the sequence (P50226 whole entry I7T/N235T) above, with T7I, P19L, T235N counted along it
SULT1A1*2, sequence (P50225 whole entry R213H/V223M): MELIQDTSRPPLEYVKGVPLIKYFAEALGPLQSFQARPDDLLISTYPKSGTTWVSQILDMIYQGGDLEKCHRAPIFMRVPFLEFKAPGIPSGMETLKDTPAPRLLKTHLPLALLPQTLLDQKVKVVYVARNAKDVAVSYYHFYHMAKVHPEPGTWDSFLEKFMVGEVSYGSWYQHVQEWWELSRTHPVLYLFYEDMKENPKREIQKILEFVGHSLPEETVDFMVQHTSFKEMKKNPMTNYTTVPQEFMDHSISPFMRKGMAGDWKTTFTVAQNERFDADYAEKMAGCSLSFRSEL

With `O=[N+]([O-])c1cc(Cl)c(O)c(Cl)c1` [DCNP, 2,6-dichloro4-nitrophenol], the IC50 on SULT1A1*1 [1] was determined as 1.44 ± 0.11 µM; on SULT1A1*3 [2] it was 1.32 ± 0.27 µM; on SULT1A2*1 [3], 6.94 ± 0.55 µM; at SULT1A2*2 [4], 44.4 ± 1.5 µM; at SULT1A2*3 [5], 0.97 ± 0.001 µM; at SULT1A3 [6] it was 86.9 ± 6 µM. For the same compound, the “DCNP Inhibition IC50” value at SULT1A2*3 [5] is on record as “most”; on SULT1A3 [6] it was “least sensitive to inhibition”. In addition, the “sensitivity to inhibition by DCNP” value in the experiment with TS PST was “sensitive to inhibition”; at TL PST it was “relatively insensitive”.

In the case of `O=[N+]([O-])c1ccc(O)cc1` [4-nitrophenol], the “Apparent Km 4-Nitrophenol” value on SULT1A2*2 [7] (1.0 to 1000 μM 4-nitrophenol) and on SULT1A3 [8] was “very high” in each case. Besides, the “SULT1A2 activity (sulfation of 4-nitrophenol)” value in the experiment on SULT1A2 is recorded as “no activity was detected”.

Turning to `Nc1ncnc2c1ncn2[C@@H]1O[C@H](COP(=O)(O)OS(=O)(=O)O)[C@@H](OP(=O)(O)O)[C@H]1O` [PAPS, 3′-phosphoadenosine-5′-phosphosulfate], the Km at SULT1A1*1 [9] stood at 1.21 ± 0.02 µM; at SULT1A1*2, 0.98 ± 0.03 µM; on SULT1A1*3 [10] it was 0.17 ± 0.02 µM; on SULT1A2*1 [11] (read-out: Apparent Km PAPS), 0.05 ± 0.001 µM; on SULT1A2*2 [7] (3000 μM 4-nitrophenol, read-out: Apparent Km PAPS) it was 0.5 ± 0.001 µM; on SULT1A2*3 [12], 0.28 ± 0.006 µM. Moreover, on SULT1A2*1 [11], the “Apparent Km PAPS” value was “approximately an order of magnitude lower”.
